Reference: patent publication US11840527B2, “Non-fused thiophene derivatives and their uses” (ENYO PHARMA, priority 2018, dated 2023)
Counter-ions that a name gives are not always drawn.

System: H1N1 (influenza A/New Caledonia/20/99)
Assay: Antiviral effect on A549 cells infected with H1N1
Assay type: cell-based, H1N1 A/New Caledonia/20/99 virus
Details: Influenza A virus, MOI 0.1, 48 h post-infection, MUNANA neuraminidase readout
Protocol: The antiviral effect of the compounds of the invention have been tested on A549 cell lines infected with H1N1 (influenza A/New Caledonia/20/99).
Human A549 cells (80,000 cells/well in a 96 well plate) were treated with a range of concentration of test compounds and immediately infected by H1N1 A/New Caledonia/20/99 virus (clinical isolate) at MOI of 0.1 in DMEM/1% Penicillin/streptomycin supplemented with […] TPCK trypsin (Sigma) and incubated at 37° C. in 5% CO2. 48 h post-infection, supernatants (25 μl) were collected and transferred into a 96-well black flat-bottom plate, mixed with 25 μl PBS with Ca++/Mg++ (Thermo Fisher) and 50 μl of 2′-(4-Methylumbelliferyl)-ax-D-N-acetylneuraminic acid sodium salt hydrate stock-solution (20 μM, MUNANA, Sigma). Plates were incubated 1h at 37° C. and reaction is stopped by adding 100 μl of Stop Solution (glycine 0.1 M pH10.7/25% ethanol). The amount of fluorescent product released by MUNANA hydrolysis (4-MU) was measured in a Tecan spectrophotometer with excitation and emission wavelengths of 365 and 450 nm respectively.

Structure (SMILES) | IC50 [nM]
O=C(Nc1scc(-c2ccc(C(F)(F)F)cc2)c1C(=O)O)c1ccccc1 [Compound #20, 2-Benzamido-4-[4-(trifluoromethyl)phenyl]thiophene-3-carboxylic acid] | 310
COC1CN(c2ccc(C(=O)Nc3scc(C4CC4)c3C(=O)O)cc2)C1 [Compound #88, 4-Cyclopropyl-2-[[4-(3-methoxyazetidin-1-yl)benzoyl]amino]thiophene-3-carboxylic acid] | 500
O=C(Nc1scc(C2CC(F)(F)C2)c1C(=O)O)c1ccc(NCC2CCOCC2)cc1 [Compound #106, 4-(3,3-Difluorocyclobutyl)-2-[[4-(tetrahydropyran-4-ylmethylamino)benzoyl]amino]thiophene-3-carboxylic acid] | 350
O=C(Nc1scc(C2CC2)c1C(=O)O)c1ccc(NCC2CCOCC2)cc1 [Compound #90, 4-Cyclopropyl-2-[[4-(tetrahydropyran-4-ylmethylamino)benzoyl]amino]thiophene-3-carboxylic acid] | 240
Cc1ccc(-c2csc(NC(=O)c3ccccc3)c2C(=O)O)cc1C [Compound #22, 2-Benzamido-4-(3,4-dimethylphenyl)thiophene-3-carboxylic acid] | 550
COC1CN(c2ccc(C(=O)Nc3scc(C(C)(C)C)c3C(=O)O)cc2)C1 [Compound #92, 4-tert-Butyl-2-[[4-(3-methoxyazetidin-1-yl)benzoyl]amino]thiophene-3-carboxylic acid] | 260
O=C(Nc1sc(Cl)c(C2CCCCC2)c1C(=O)O)c1ccc(OC(F)F)cc1 [Compound #13, 5-Chloro-4-cyclohexyl-2-[[4-(difluoromethoxy)benzoyl]amino]thiophene-3-carboxylic acid] | 370
COC1CN(c2ccc(C(=O)Nc3scc(C4(C)CCC4)c3C(=O)O)cc2)C1 [Compound #115, 2-[[4-(3-Methoxyazetidin-1-yl)benzoyl]amino]-4-(1-methylcyclobutyl) thiophene-3-carboxylic acid] | 240
COC1CN(c2ccc(C(=O)Nc3sc(C)c(C)c3C(=O)O)cc2)C1 [Compound #100, 2-[[4-(3-Methoxyazetidin-1-yl)benzoyl]amino]-4,5-dimethyl-thiophene-3-carboxylic acid] | 44.5
CC(C)(C)c1csc(NC(=O)c2ccc(NC3CCCOC3)cc2)c1C(=O)O (stereo not shown) [Compound #118, 4-tert-Butyl-2-[[4-(tetrahydropyran-3-ylamino)benzoyl]amino]thiophene-3-carboxylic acid] | 200
COCCOc1ccc(C(=O)Nc2scc(C(C)(C)C)c2C(=O)O)cc1 [Compound #116, 4-tert-Butyl-2-[[4-(2-methoxyethoxy)benzoyl]amino]thiophene-3-carboxylic acid] | 10
O=C(Nc1scc(C2CCCCC2)c1C(=O)O)c1ccc(OC(F)F)cc1 [Compound #11, 4-Cyclohexyl-2-[[4-(difluoromethoxy)benzoyl]amino]thiophene-3-carboxylic acid] | 412
O=C(Nc1scc(C2CCCC2)c1C(=O)O)c1cccc(N2CCOCC2)c1 [Compound #71, 4-Cyclopentyl-2-[(3-morpholinobenzoyl)amino]thiophene-3-carboxylic acid] | 130
CC1(C)C(c2csc(NC(=O)c3ccccc3)c2C(=O)O)C1(C)C [Compound #39, 2-Benzamido-4-(2,2,3,3-tetramethylcyclopropyl)thiophene-3-carboxylic acid] | 2370
Cc1sc(NC(=O)c2ccc(OC(F)F)cc2)c(C(=O)O)c1-c1ccc(Cl)cc1 [Compound #5, 4-(4-Chlorophenyl)-2-[[4-(difluoromethoxy)benzoyl]amino]-5-methyl-thiophene-3-carboxylic acid] | 260
O=C(Nc1scc(C2COc3ccccc3C2)c1C(=O)O)c1ccccc1 (stereo not shown) [Compound #84, 2-Benzamido-4-chroman-3-yl-thiophene-3-carboxylic acid] | 287
O=C(Nc1scc(-c2ccccc2)c1C(=O)O)c1ccccc1 [Compound #43, 2-Benzamido-4-phenyl-thiophene-3-carboxylic acid] | 5950
O=C(Nc1scc(C2CCCC2)c1C(=O)O)c1ccccc1 [Compound #10, 2-Benzamido-4-cyclopentyl-thiophene-3-carboxylic acid] | 205
COC1CN(c2ccc(C(=O)Nc3scc(CC(C)C)c3C(=O)O)cc2)C1 [Compound #109, 4-iso-Butyl-2-[[4-(3-methoxyazetidin-1-yl)benzoyl]amino]thiophene-3-carboxylic acid diethylamine salt] | 200
COCCNc1ccc(C(=O)Nc2scc(C3CCCC3)c2C(=O)O)cc1 [Compound #61, 4-Cyclopentyl-2-[[4-(2-methoxyethylamino)benzoyl]amino]thiophene-3-carboxylic acid] | 100

Structure (SMILES) | IC50 [nM]
O=C(Nc1scc(C2CCCC2)c1C(=O)O)c1ccc(NCC2CCOCC2)cc1 [Compound #66, 4-Cyclopentyl-2-[[4-(tetrahydropyran-4-ylmethylamino)benzoyl]amino]thiophene-3-carboxylic acid] | 15
O=C(Nc1scc(C2CC(F)(F)C2)c1C(=O)O)c1ccccc1 [Compound #35, 2-Benzamido-4-(3,3-difluorocyclobutyl)thiophene-3-carboxylic acid] | 1670
Cc1sc(NC(=O)c2ccccc2)c(C(=O)O)c1C1CCCCC1 [Compound #27, 2-Benzamido-4-cyclohexyl-5-methyl-thiophene-3-carboxylic acid] | 880
COc1ccc(C(=O)Nc2scc(C3CCCCC3)c2C(=O)O)cc1OC [Compound #25, 4-Cyclohexyl-2-[(3,4-dimethoxybenzoyl)amino]thiophene-3-carboxylic acid] | 729
O=C(Nc1scc(C2CCCCC2)c1C(=O)O)c1ccc(N2CCOCC2)cc1 [Compound #29, 4-Cyclohexyl-2-[(4-morpholinobenzoyl)amino]thiophene-3-carboxylic acid] | 1270
CC(C)(C)c1csc(NC(=O)c2cccc(NCC3CCOCC3)c2)c1C(=O)O [Compound #110, 4-tert-Butyl-2-[[3-(tetrahydropyran-4-ylmethylamino)benzoyl]amino]thiophene-3-carboxylic acid] | 820
Cc1ccccc1C(=O)Nc1sc(-c2ccccc2)cc1C(=O)O [Compound #45, 2-[(2-Methylbenzoyl)amino]-5-phenyl-thiophene-3-carboxylic acid] | 8550
CC(C)Cc1csc(NC(=O)c2ccccc2)c1C(=O)O [Compound #96, 2-Benzamido-4-isobutyl-thiophene-3-carboxylic acid] | 610
CCOC1CN(c2ccc(C(=O)Nc3scc(C(C)(C)C)c3C(=O)O)cc2)C1 [Compound #104, 4-tert-Butyl-2-[[4-(3-ethoxyazetidin-1-yl)benzoyl]amino]thiophene-3-carboxylic acid] | 240
Cc1ccc(-c2c(Cl)sc(NC(=O)c3ccccc3)c2C(=O)O)cc1C [Compound #23, 2-Benzamido-5-chloro-4-(3,4-dimethylphenyl)thiophene-3-carboxylic acid] | 420
CC(C)(C)c1csc(NC(=O)c2ccccc2)c1C(=O)O [Compound #32, 2-Benzamido-4-tert-butyl-thiophene-3-carboxylic acid] | 1470
O=C(Nc1scc(C2C3CCCCC32)c1C(=O)O)c1ccccc1 (stereo not shown) [Compound #37, 2-Benzamido-4-norcaran-7-yl-thiophene-3-carboxylic acid] | 1870
O=C(Nc1scc(C2CCCC2)c1C(=O)O)c1ccc(N2CCOCC2)cc1 [Compound #59, 4-Cyclopentyl-2-[(4-morpholinobenzoyl)amino]thiophene-3-carboxylic acid] | 75
O=C(Nc1sc(Cl)c(-c2ccc(C(F)(F)F)cc2)c1C(=O)O)c1ccccc1 [Compound #50, 2-Benzamido-5-chloro-4-[4-(trifluoromethyl)phenyl]thiophene-3-carboxylic acid] | 320
COC1CN(c2ccc(C(=O)Nc3scc(C4CCCC4)c3C(=O)O)cc2)C1 [Compound #62, 4-Cyclopentyl-2-[[4-(3-methoxyazetidin-1-yl)benzoyl]amino]thiophene-3-carboxylic acid] | 52
Cc1sc(NC(=O)c2ccccc2)c(C(=O)O)c1-c1ccc(Cl)cc1 [Compound #4, 2-Benzamido-4-(4-chlorophenyl)-5-methyl-thiophene-3-carboxylic acid] | 170
O=C(Nc1sc(Cl)c(C2CCCCC2)c1C(=O)O)c1ccc(N2CCOCC2)cc1 [Compound #15, 5-Chloro-4-cyclohexyl-2-[(4-morpholinobenzoyl)amino]thiophene-3-carboxylic acid] | 225
CC(C)(C)c1csc(NC(=O)c2ccc(NCC3CCCOC3)cc2)c1C(=O)O (stereo not shown) [Compound #119, 4-tert-Butyl-2-[[4-(tetrahydropyran-3-ylmethylamino)benzoyl]amino]thiophene-3-carboxylic acid] | 100
O=C(Nc1scc(-c2ccccc2Cl)c1C(=O)O)c1ccccc1 [Compound #44, 2-Benzamido-4-(2-chlorophenyl)thiophene-3-carboxylic acid] | 6650
O=C(Nc1scc(C2CCC2)c1C(=O)O)c1ccccc1 [Compound #98, 2-Benzamido-4-cyclobutyl-thiophene-3-carboxylic acid] | 610
